From US6951848B2, “Functionalized heterocycles as modulators of chemokine receptor function and methods of use therefor” (Millennium Pharmaceuticals, Inc.,, priority 2001, dated 2005)

What was measured:
CCR-5 = biological target: T1, CCR-5 (Homo sapiens, UniProt P51681); assay: 125I-gp120/sCD4/CCR-5 receptor binding assay; details: membranes from CCR-5/L 1.2 cells, 3 nM sCD4, 0.1 nM 125I-gp120 (HIV-1 JR-FL); read-out: IC50 for inhibition of binding of sCD-4/GP-120 to CCR-5
T1 construct: expressed in transfected cells; host or cells: L1.2 cells (CCR-5/L1.2 transfectants), membranes
T1 sequence (P51681 whole entry): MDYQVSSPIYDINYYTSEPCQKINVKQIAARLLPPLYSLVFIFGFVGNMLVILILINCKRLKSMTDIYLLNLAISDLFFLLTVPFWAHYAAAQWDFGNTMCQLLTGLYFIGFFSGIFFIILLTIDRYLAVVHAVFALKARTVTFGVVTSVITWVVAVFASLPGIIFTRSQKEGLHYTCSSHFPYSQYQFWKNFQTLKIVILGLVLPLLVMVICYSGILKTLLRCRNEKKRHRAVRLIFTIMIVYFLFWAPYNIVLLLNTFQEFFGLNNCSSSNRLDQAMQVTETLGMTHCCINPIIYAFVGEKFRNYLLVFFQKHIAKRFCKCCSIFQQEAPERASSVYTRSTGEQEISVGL
Experimental: CCR-5 Receptor Binding Assay The compounds of the present invention were evaluated using the following CCR-5 receptor binding assay. The ^125I-gp120/sCD4/CCR-5 binding assay was carried out similarly as described in Wu et al., Nature, 1996;384:179-183. Briefly, the envelope gp120 protein derived from HIV-1 JR-FL (Trkola et al., Nature, 1996;384:184-186), an M-tropic strain, was iodinated using solid phase lactoperoxidase to a specific activity of 20 μCi/μg. For each binding reaction (in a final volume of 100 μL binding buffer [50 mM HEPES, pH 7.5, 1 mM CaCl2, 5 mM MgCl2, and 0.5% BSA]), 25 μL (2.5 μg) of membranes prepared from CCR-5/L 1.2 cells were mixed with 25 μL (3 nM) sCD4, followed by 25 μL (0.1 nM) radio-labeled gp120 in the presence or absence of 25 μL compound dissolved in DMSO (final concentration of DMSO 0.5%). The reactions were incubated at room temperature for 45 to 60 minutes and stopped by transferring the mixture to GFB filter plates, which were then washed 3 to 4 times with binding buffer containing 0.5 M NaCl. The plates were dried and MicroScint scintillation fluid was added before counting. […] The compounds of Examples 56 and 66 had IC50s of about […]. […] Preferred compounds can inhibit the binding of sCD-4/GP-120 to CCR-5 with IC50s of about 10 μM to about 100 μM or about 1 nM to about 10 μM

IC50 (CCR-5): 1.93 ± 0.32 µM | melting point: 130 to 134 °C
SMILES: CCN(CC)CCc1ccc2[nH]c(C)c(C(=O)OCc3ccccc3)c2c1.Cl [Example 72, 5-(2-Diethylamino-ethyl)-2-methyl-1H-indole-3-carboxylic acid benzyl ester hydrochloride]
